Experiment: molar heat capacity at constant volume; xn = mol fraction of the nth substance listed
Details: x1 = 0.2607

N [ammonia] + O
Details	molar heat capacity at constant volume [J/K/mol]
597.59 K, Fluid (supercritical or subcritical phases), Mass density=342.18 kg/m3, isochoric heat capacity	106.69
597.6 K, Fluid (supercritical or subcritical phases), Mass density=160.07 kg/m3, isochoric heat capacity	66.86
597.67 K, Fluid (supercritical or subcritical phases), Mass density=342.18 kg/m3, isochoric heat capacity	101.08
597.68 K, Fluid (supercritical or subcritical phases), Mass density=376.89 kg/m3, isochoric heat capacity	88.28
597.69 K, Fluid (supercritical or subcritical phases), Mass density=160.07 kg/m3, isochoric heat capacity	65.49
597.76 K, Fluid (supercritical or subcritical phases), Mass density=342.18 kg/m3, isochoric heat capacity	93.62
597.85 K, Fluid (supercritical or subcritical phases), Mass density=342.18 kg/m3, isochoric heat capacity	99.13
597.93 K, Fluid (supercritical or subcritical phases), Mass density=342.18 kg/m3, isochoric heat capacity	94.33
597.93 K, Fluid (supercritical or subcritical phases), Mass density=376.89 kg/m3, isochoric heat capacity	82.42
598.02 K, Fluid (supercritical or subcritical phases), Mass density=342.18 kg/m3, isochoric heat capacity	93.02
598.28 K, Fluid (supercritical or subcritical phases), Mass density=376.89 kg/m3, isochoric heat capacity	83.59
598.33 K, Fluid (supercritical or subcritical phases), Mass density=329 kg/m3, isochoric heat capacity	117.38
598.33 K, Liquid, Isochoric heat capacity	117.38
598.45 K, Fluid (supercritical or subcritical phases), Mass density=329 kg/m3, isochoric heat capacity	113.21
598.54 K, Fluid (supercritical or subcritical phases), Mass density=329 kg/m3, isochoric heat capacity	109.57
598.71 K, Fluid (supercritical or subcritical phases), Mass density=329 kg/m3, isochoric heat capacity	102.77
598.96 K, Fluid (supercritical or subcritical phases), Mass density=320.33 kg/m3, isochoric heat capacity	120.79
598.96 K, Liquid, Isochoric heat capacity	120.79
598.97 K, Fluid (supercritical or subcritical phases), Mass density=376.89 kg/m3, isochoric heat capacity	81.57
598.98 K, Fluid (supercritical or subcritical phases), Mass density=160.07 kg/m3, isochoric heat capacity	58.27
599.05 K, Fluid (supercritical or subcritical phases), Mass density=320.33 kg/m3, isochoric heat capacity	119.07
599.05 K, Fluid (supercritical or subcritical phases), Mass density=329 kg/m3, isochoric heat capacity	107.4
599.12 K, Fluid (supercritical or subcritical phases), Mass density=160.07 kg/m3, isochoric heat capacity	56.88
599.14 K, Fluid (supercritical or subcritical phases), Mass density=320.33 kg/m3, isochoric heat capacity	116.6
599.22 K, Fluid (supercritical or subcritical phases), Mass density=320.33 kg/m3, isochoric heat capacity	116.48
599.22 K, Fluid (supercritical or subcritical phases), Mass density=329 kg/m3, isochoric heat capacity	100.28
599.24 K, Fluid (supercritical or subcritical phases), Mass density=160.07 kg/m3, isochoric heat capacity	59.53
599.28 K, Fluid (supercritical or subcritical phases), Mass density=160.07 kg/m3, isochoric heat capacity	57.43
599.31 K, Fluid (supercritical or subcritical phases), Mass density=320.33 kg/m3, isochoric heat capacity	114.22
599.31 K, Fluid (supercritical or subcritical phases), Mass density=329 kg/m3, isochoric heat capacity	97.19
599.31 K, Fluid (supercritical or subcritical phases), Mass density=456.58 kg/m3, isochoric heat capacity	67.32
599.39 K, Fluid (supercritical or subcritical phases), Mass density=320.33 kg/m3, isochoric heat capacity	116.94
599.42 K, Fluid (supercritical or subcritical phases), Mass density=312.91 kg/m3, isochoric heat capacity	124.13
599.42 K, Liquid, Isochoric heat capacity	124.13
599.48 K, Fluid (supercritical or subcritical phases), Mass density=312.91 kg/m3, isochoric heat capacity	116.5
599.48 K, Fluid (supercritical or subcritical phases), Mass density=456.58 kg/m3, isochoric heat capacity	66.88
599.57 K, Fluid (supercritical or subcritical phases), Mass density=311.19 kg/m3, isochoric heat capacity	125.38
599.57 K, Fluid (supercritical or subcritical phases), Mass density=312.91 kg/m3, isochoric heat capacity	107.92
599.57 K, Liquid, Isochoric heat capacity	125.38
599.63 K, Fluid (supercritical or subcritical phases), Mass density=311.19 kg/m3, isochoric heat capacity	116.92
599.65 K, Fluid (supercritical or subcritical phases), Mass density=312.91 kg/m3, isochoric heat capacity	98.79
599.65 K, Fluid (supercritical or subcritical phases), Mass density=456.58 kg/m3, isochoric heat capacity	66.45
599.67 K, Fluid (supercritical or subcritical phases), Mass density=309.95 kg/m3, isochoric heat capacity	126.26
599.67 K, Liquid, Isochoric heat capacity	126.26
599.74 K, Fluid (supercritical or subcritical phases), Mass density=309.95 kg/m3, isochoric heat capacity	122.91
599.74 K, Fluid (supercritical or subcritical phases), Mass density=311.19 kg/m3, isochoric heat capacity	119.75
599.74 K, Fluid (supercritical or subcritical phases), Mass density=312.91 kg/m3, isochoric heat capacity	95.52
599.78 K, Fluid (supercritical or subcritical phases), Mass density=308.35 kg/m3, isochoric heat capacity	124.13
599.78 K, Fluid (supercritical or subcritical phases), Mass density=309.95 kg/m3, isochoric heat capacity	120.4
599.78 K, Liquid, Isochoric heat capacity	124.13
599.82 K, Fluid (supercritical or subcritical phases), Mass density=309.95 kg/m3, isochoric heat capacity	110.51
599.82 K, Fluid (supercritical or subcritical phases), Mass density=311.19 kg/m3, isochoric heat capacity	114.13
599.82 K, Fluid (supercritical or subcritical phases), Mass density=456.58 kg/m3, isochoric heat capacity	66.86
599.89 K, Fluid (supercritical or subcritical phases), Mass density=307.35 kg/m3, isochoric heat capacity	121.11
599.89 K, Liquid, Isochoric heat capacity	121.11
599.91 K, Fluid (supercritical or subcritical phases), Mass density=308.35 kg/m3, isochoric heat capacity	117.6
599.91 K, Fluid (supercritical or subcritical phases), Mass density=309.95 kg/m3, isochoric heat capacity	104.19
599.99 K, Fluid (supercritical or subcritical phases), Mass density=307.35 kg/m3, isochoric heat capacity	117.17
599.99 K, Fluid (supercritical or subcritical phases), Mass density=308.35 kg/m3, isochoric heat capacity	105.88
599.99 K, Fluid (supercritical or subcritical phases), Mass density=309.95 kg/m3, isochoric heat capacity	102.57
599.99 K, Fluid (supercritical or subcritical phases), Mass density=312.91 kg/m3, isochoric heat capacity	91.51
600.02 K, Fluid (supercritical or subcritical phases), Mass density=305.44 kg/m3, isochoric heat capacity	119.52
600.02 K, Liquid, Isochoric heat capacity	119.52
600.08 K, Fluid (supercritical or subcritical phases), Mass density=305.44 kg/m3, isochoric heat capacity	116.14
600.08 K, Fluid (supercritical or subcritical phases), Mass density=307.35 kg/m3, isochoric heat capacity	103.34
600.08 K, Fluid (supercritical or subcritical phases), Mass density=308.35 kg/m3, isochoric heat capacity	100.97
600.16 K, Fluid (supercritical or subcritical phases), Mass density=307.35 kg/m3, isochoric heat capacity	101.06
600.17 K, Fluid (supercritical or subcritical phases), Mass density=303.47 kg/m3, isochoric heat capacity	117.74
600.17 K, Fluid (supercritical or subcritical phases), Mass density=305.44 kg/m3, isochoric heat capacity	107.85
600.17 K, Fluid (supercritical or subcritical phases), Mass density=308.35 kg/m3, isochoric heat capacity	93.64
600.17 K, Liquid, Isochoric heat capacity	118.63
600.25 K, Fluid (supercritical or subcritical phases), Mass density=303.47 kg/m3, isochoric heat capacity	110.49
600.25 K, Fluid (supercritical or subcritical phases), Mass density=305.44 kg/m3, isochoric heat capacity	102.54
600.29 K, Fluid (supercritical or subcritical phases), Mass density=301.94 kg/m3, isochoric heat capacity	117.56
600.29 K, Liquid, Isochoric heat capacity	117.56
600.33 K, Fluid (supercritical or subcritical phases), Mass density=301.94 kg/m3, isochoric heat capacity	111.7
600.34 K, Fluid (supercritical or subcritical phases), Mass density=303.47 kg/m3, isochoric heat capacity	104.01
600.34 K, Fluid (supercritical or subcritical phases), Mass density=305.44 kg/m3, isochoric heat capacity	105.13
600.35 K, Fluid (supercritical or subcritical phases), Mass density=309.95 kg/m3, isochoric heat capacity	100.02
600.42 K, Fluid (supercritical or subcritical phases), Mass density=303.47 kg/m3, isochoric heat capacity	98.88
600.42 K, Fluid (supercritical or subcritical phases), Mass density=305.44 kg/m3, isochoric heat capacity	97.9

— the NIST ThermoML archive (doi:10.1007/s10765-009-0602-6)
